In general, IC50 refers to the midpoint of a concentration-inhibition curve.

We go through twelve molecules from patent publication US20240083857A1, “2-Methyl-Quinazolines” (Bayer Pharma Aktiengesellschaft, priority 2017, published 2024).

In test [1] the target is K-Ras^G12C : hSOS1 interaction (Homo sapiens, UniProt Q07889). The test is described as follows: Biochemical assay 1: K-Ras^G12C interaction assay with hSOS1 (HTRF). Type of test: binding. The following applies: read-out: Assay 1 (KRAS-SOS Interaction) activity expressed as IC50. (In general: TR-FRET usually uses a lanthanide donor and a delayed reading to cut background.)

The target of test [2] is human SOS1 (nucleotide exchange of K-Ras^G12C) (Homo sapiens, UniProt Q07889). The test is described as follows: Biochemical assay 2: K-Ras^G12C activation assay by hSOS1 at high GTP concentration (HTRF). The note with it: high GTP; read-out: Assay 2 (KRAS-Activation by SOS high GTP) activity expressed as IC50.

`COc1cc2nc(C)nc(NC(C)c3cc(-c4cnc5n4CCC5)cs3)c2cc1OC` (stereo not drawn) [Example 272, N-{1-[4-(6,7-dihydro-5H-pyrrolo[1,2-a]imidazol-3-yl)thiophen-2-yl]ethyl}-6,7-dimethoxy-2-methylquinazolin-4-amine]: the IC50 in test [1] was 1820 nM; in test [2] it was 1500 nM.

`COc1cc2nc(C)nc(NC(C)c3ccc(-c4ccccc4CN4CCC4)s3)c2cc1OC` (stereo not drawn) [Example 317, N-[1-{5-[2-(azetidin-1-ylmethyl)phenyl]thiophen-2-yl}ethyl]-6,7-dimethoxy-2-methylquinazolin-4-amine]: the IC50 in test [1] is 76 nM; in test [2], 62.7 nM.

As for `COc1cc2nc(C)nc(NC(C)c3ccc(-c4ccc(F)cc4CNC(=O)c4ncc[nH]4)s3)c2cc1OC` (stereo not drawn) [Example 293, N-[2-(5-{1-[(6,7-dimethoxy-2-methylquinazolin-4-yl)amino]ethyl}thiophen-2-yl)-5-fluorobenzyl]-1H-imidazole-2-carboxamide], the figures for the IC50 in test [1] and in test [2] were 2750 nM and 3920 nM, respectively.

As for `COc1cc2nc(C)nc(NC(C)c3cccc4c3cnn4C)c2cc1OC` (stereo not drawn) [Example 17, 6,7-dimethoxy-2-methyl-N-[1-(1-methyl-1H-indazol-4-yl)ethyl]quinazolin-4-amine], the IC50 was 270 nM in test [1] and 297 nM in test [2].

As to `COc1cc2nc(C)nc(NC(C)c3ccc(-c4cnc5n4CCC5)s3)c2cc1OC` (single isomer, unassigned; enantiomer 1) [Example 328, N-{1-[5-(6,7-dihydro-5H-pyrrolo[1,2-a]imidazol-3-yl)thiophen-2-yl]ethyl}-6,7-dimethoxy-2-methylquinazolin-4-amine, Enantiomer 1], the figures for the IC50 in test [1] and in test [2] were 142 nM and 526 nM, respectively.

For the molecule `COc1cc2nc(C)nc(NC(C)c3cc(-c4ccn(CCN5CCCC5)n4)cs3)c2cc1OC` (stereo not drawn) [Example 267, 6,7-dimethoxy-2-methyl-N-[1-(4-{1-[2-(pyrrolidin-1-yl)ethyl]-1H-pyrazol-3-yl}thiophen-2-yl)ethyl]quinazolin-4-amine], the IC50 is 3390 nM in test [1] and 1520 nM in test [2].

For `COc1cc2nc(C)nc(NC(C)c3cc(-c4ccccc4CN)cs3)c2cc1OC` (stereo not drawn) [Example 270, N-[1-{4-[2-(aminomethyl)phenyl]thiophen-2-yl}ethyl]-6,7-dimethoxy-2-methylquinazolin-4-amine], the half-inhibitory concentration (IC50) in test [1] amounted to 91.4 nM; in test [2] it was 82.2 nM.

Regarding `COc1cc2nc(C)nc(N[C@H](C)c3cccc(-c4c(C)noc4C)c3)c2cc1OC` [Example 336, N-{(1R)-1-[3-(3,5-dimethyl-1,2-oxazol-4-yl)phenyl]ethyl}-6,7-dimethoxy-2-methyl-quinazolin-4-amine], the values for the half-inhibitory concentration (IC50) in test [1] and in test [2] were 687 nM and 1260 nM, respectively.

Take `COc1cc2nc(C)nc(NC(C)c3ccc(-c4cc(C)n(C)c4C#N)s3)c2cc1OC` (stereo not drawn) [Example 286, 3-(5-{1-[(6,7-dimethoxy-2-methylquinazolin-4-yl)amino]ethyl}thiophen-2-yl)-1,5-dimethyl-1H-pyrrole-2-carbonitrile]: the 50% inhibitory concentration (IC50) in test [1] stood at 16700 nM; in test [2] it was 17400 nM.

Consider `COc1cc2nc(C)nc(NC(C)c3ccc(-c4ccccc4CN4CC(F)C4)s3)c2cc1OC` (stereo not drawn) [Example 322, N-[1-(5-{2-[(3-fluoroazetidin-1-yl)methyl]phenyl}thiophen-2-yl)ethyl]-6,7-dimethoxy-2-methylquinazolin-4-amine], for which the values for the IC50 in test [1] and in test [2] were 408 nM and 247 nM, respectively.

Consider `COc1cc2nc(C)nc(NC(C)c3ccc4c(c3)OCCO4)c2cc1OC` (stereo not drawn) [Example 19, N-[1-(2,3-dihydro-1,4-benzodioxin-6-yl)ethyl]-6,7-dimethoxy-2-methylquinazolin-4-amine], for which the IC50 in test [1] was determined as 7780 nM; in test [2], 6550 nM.

For `COc1cc2nc(C)nc(NC(C)c3ccc(-c4ccccc4CNc4ccccn4)s3)c2cc1OC` (stereo not drawn) [Example 301, 6,7-di methoxy-2-methyl-N-[1-(5-{2-[(pyridin-2-ylamino)methyl]phenyl}thiophen-2-yl)ethyl]quinazolin-4-amine], the values for the IC50 in test [1] and in test [2] were 799 nM and 931 nM, respectively.
